For data set [1], the system named is NIH3T3. In words: Antiproliferative activity against NIH3T3 cells at 10 uM after 72 hrs by MTT assay. The data set is classed as functional, Mus musculus. Background: Tetrazolium dyes change colour on reduction, which living cells bring about.
Data set [2] has as its target Signal transducer and activator of transcription 3 (Homo sapiens) (UniProt P40763). Kind of data set: Binding affinity to STAT3 in […] cells assessed as STAT3 stabilization incubated for 1 hr by CETSA. The data set is classed as cell-based. Conditions: NIH3T3.
The test system of data set [3] is NIH3T3. In words: Inhibition of TGF-beta1 induced NIH-3T3 cells activation assessed as effect on collagen I at 6 uM preincubated with TGF-beta1 for 1 hr followed by compound addition and measured after 24 hrs by DAPI staining based fluorescence microscopic analysis. The data set is classed as functional, cell-based. Conditions: Mus musculus.
In data set [4] the test system is NIH3T3. Kind of data set: Inhibition of TGF-beta1 induced NIH-3T3 cells activation assessed as reduction in alpha-SMA level at 6 uM preincubated with TGF-beta1 for 1 hr followed by compound addition and measured after 24 hrs by DAPI staining based fluorescence microscopic analysis. Type of data set: functional, cell-based. The following applies: Mus musculus.
Data set [5] is described as follows: Tmax in Sprague-Dawley rat at 20 mg/kg, po measured upto 24 hrs. Type of data set: ADME, organism-based. Conditions: in vivo.
Data set [6] is described as follows: AUC(0 to infinity) in Sprague-Dawley rat at 20 mg/kg, po measured upto 24 hrs. Type of data set: ADME, organism-based. The arrangement: dose 20 mg/kg, time < 24 hrs, route po. The following applies: in vivo.
The nature of data set [7]: Clearance in Sprague-Dawley rat at 2 mg/kg, iv measured upto 24 hrs. The following applies: in vivo. Type of data set: ADME, organism-based.
Data set [8] relates to Mus musculus. Kind of data set: Anti-fibrotic activity PO dosed bleomycin-induced C57BL/6 mouse model of pulmonary fibrosis assessed as reduction in lung to body weight ratio pretreated with bleomycin for 1 day followed by compound addition once daily for 22 days. Type of data set: functional, organism-based. Conditions: dose 30-60 mg/kg, time 22.0 day.
Data set [9] concerns Mus musculus. Kind of data set: Anti-fibrotic activity in bleomycin-induced C57BL/6 mouse model of pulmonary fibrosis assessed as reduction in collagen deposition at 30 to 60 mg/kg, po pretreated with bleomycin for 1 day followed by compound addition once daily for 22 days by Masson't trichrome staining based analysis. Type of data set: functional. The arrangement: scale not given: the % may be the effect or the level left. The following applies: dose 30-60 mg/kg, time 22 day.

In data set [10] the test system is Mus musculus. In words: Anti-fibrotic activity in bleomycin-induced C57BL/6 mouse model of pulmonary fibrosis assessed as reduction in alpha-SMA level at 30 to 60 mg/kg, po pretreated with bleomycin for 1 day followed by compound addition once daily for 22 days by immunohistochemical analysis. Type of data set: functional, organism-based. The following applies: dose 30-60 mg/kg, time 22.0 day.

Data set [11] relates to Mus musculus. Kind of data set: Anti-fibrotic activity in bleomycin-induced C57BL/6 mouse model of pulmonary fibrosis assessed as reduction in collagen I level at 30 to 60 mg/kg, po pretreated with bleomycin for 1 day followed by compound addition once daily for 22 days by immunohistochemical analysis. The following applies: dose 30-60 mg/kg, time 22.0 day. The data set is classed as functional, organism-based.

In data set [12] the test system is Mus musculus. Kind of data set: Anti-fibrotic activity in bleomycin-induced C57BL/6 mouse model of pulmonary fibrosis assessed as reduction in vimentin expression level at 30 to 60 mg/kg, po pretreated with bleomycin for 1 day followed by compound addition once daily for 22 days by Western blot analysis. Type of data set: functional, organism-based. Conditions: dose 30-60 mg/kg, time 22.0 day.

Data set [13] deals with Mus musculus. Kind of data set: Anti-fibrotic activity in bleomycin-induced C57BL/6 mouse model of pulmonary fibrosis assessed as reduction in p-STAT3 level at 30 to 60 mg/kg, po pretreated with bleomycin for 1 day followed by compound addition once daily for 22 days by immunohistochemical analysis. The data set is classed as functional, organism-based. Conditions: dose 30-60 mg/kg, time 22.0 day.

Data set [14] in a line: Toxicity in C57BL/6 mouse assessed as effect on heart tissue at 30 to 60 mg/kg, po administered once daily. The data set is classed as organism-based. Conditions: in vivo, dose 30-60 mg/kg.
A short description of data set [15]: Toxicity in C57BL/6 mouse assessed as effect on liver tissue at 30 to 60 mg/kg, po administered once daily. The data set is classed as organism-based. The following applies: in vivo, dose 30-60 mg/kg.
Data set [16] deals with Mus musculus. Kind of data set: Anti-fibrotic activity in bleomycin-induced C57BL/6 mouse model of pulmonary fibrosis assessed as reduction in ratio of CD69+CD4+ T cells at 60 mg/kg, po administered once daily by flow cytometry analysis (reference value: 9.05%). Type of data set: functional, T-cell. The arrangement: scale not given: the % may be the effect or the level left. A general note: In flow cytometry, cells or beads pass a laser one at a time.

Data set [17] deals with Mus musculus. In words: Anti-fibrotic activity in bleomycin-induced C57BL/6 mouse model of pulmonary fibrosis assessed as reduction in ratio of macrophage cells at 30 mg/kg, po administered once daily by flow cytometry analysis (reference value: 21.51%). Type of data set: functional. Set-up: scale not given: the % may be the effect or the level left.
Data set [18] relates to Mus musculus. In words: Anti-fibrotic activity in bleomycin-induced C57BL/6 mouse model of pulmonary fibrosis assessed as reduction in lung to body weight ratio at 60 mg/kg, po pretreated with bleomycin followed by compound addition once daily on day 7 to 14. Type of data set: functional, organism-based. The following applies: time 7.0 day.
Data set [19] relates to Mus musculus. In words: Anti-fibrotic activity in bleomycin-induced C57BL/6 mouse model of pulmonary fibrosis assessed as reduction in alpha-SMA level at 60 mg/kg, po pretreated with bleomycin followed by compound addition once daily on day 7 to 14. Type of data set: functional, organism-based. Conditions: time 7.0 day.
The subject of data set [20] is Mus musculus. In words: Anti-fibrotic activity in bleomycin-induced C57BL/6 mouse model of pulmonary fibrosis assessed as reduction in collagen I level at 60 mg/kg, po pretreated with bleomycin followed by compound addition once daily on day 7 to 14. The data set is classed as functional, organism-based. The following applies: time 7.0 day.
The test system of data set [21] is Mus musculus. Kind of data set: Anti-fibrotic activity in bleomycin-induced C57BL/6 mouse model of pulmonary fibrosis assessed as reduction in vimentin level at 60 mg/kg, po pretreated with bleomycin followed by compound addition once daily on day 7 to 14. The following applies: time 7.0 day. The data set is classed as functional, organism-based.
Data set [22] concerns Mus musculus. In words: Anti-fibrotic activity in bleomycin-induced C57BL/6 mouse model of pulmonary fibrosis assessed as reduction in p-STAT3 level at 60 mg/kg, po pretreated with bleomycin followed by compound addition once daily on day 7 to 14. Conditions: time 7.0 day. The data set is classed as functional, organism-based.

SMILES strings stand for the structures. Activity calls are given as the source filed them. The calls are words filed in the database; no cut-off is given here.

Signal transducer and activator of transcription 3 (Homo sapiens), sequence (P40763 whole entry): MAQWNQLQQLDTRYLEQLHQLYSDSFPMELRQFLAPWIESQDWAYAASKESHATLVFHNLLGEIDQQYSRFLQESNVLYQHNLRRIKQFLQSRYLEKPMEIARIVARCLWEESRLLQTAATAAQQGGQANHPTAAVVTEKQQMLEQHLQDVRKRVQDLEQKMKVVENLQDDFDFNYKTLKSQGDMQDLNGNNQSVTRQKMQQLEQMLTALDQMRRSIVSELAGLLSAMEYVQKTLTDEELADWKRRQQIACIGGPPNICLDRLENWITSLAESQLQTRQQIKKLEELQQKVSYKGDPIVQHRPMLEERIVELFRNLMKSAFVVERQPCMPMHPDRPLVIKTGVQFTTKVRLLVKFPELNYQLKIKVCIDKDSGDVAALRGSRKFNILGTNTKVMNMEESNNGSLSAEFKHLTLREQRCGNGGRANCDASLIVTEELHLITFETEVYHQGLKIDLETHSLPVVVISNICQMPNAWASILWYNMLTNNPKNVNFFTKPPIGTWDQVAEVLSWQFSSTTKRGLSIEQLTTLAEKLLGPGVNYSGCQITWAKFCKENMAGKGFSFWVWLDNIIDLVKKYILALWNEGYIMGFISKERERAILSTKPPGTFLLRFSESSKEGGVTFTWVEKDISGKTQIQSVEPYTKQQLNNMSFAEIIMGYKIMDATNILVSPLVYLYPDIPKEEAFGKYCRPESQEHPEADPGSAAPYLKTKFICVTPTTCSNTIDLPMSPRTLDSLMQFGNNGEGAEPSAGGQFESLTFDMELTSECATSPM

Regarding `O=C(N/N=C/c1ccc([N+](=O)[O-])s1)c1ccc(OCCCCCCN2CCCCC2)cc1`, the Activity in the data set with NIH3T3 [1] is 81.88%; with Mus musculus [8], “Dose-Dependent Effect”; in the data set with Mus musculus [9] it was 100%; in data set [14] it was “Non-Toxic”; in data set [15], “Non-Toxic”; in the data set with Mus musculus [16], 3.06%. In the data set on Mus musculus [17], the Activity is reported as 4.79%. Besides, the outcome (in [2]; with Mus musculus [10]; in the data set with Mus musculus [11]; in the data set on Mus musculus [12]; in the data set with Mus musculus [13]; in the data set on Mus musculus [18]) was Active. Also, the result with Mus musculus [19], with Mus musculus [20], in the data set with Mus musculus [21] and in the data set with Mus musculus [22] was Active. The inhibition entry with NIH3T3 [3] and in the data set with NIH3T3 [4] was “Active” throughout. Also, in data set [5], the Tmax was found to be 2.17 h. The AUC(0-inf) in data set [6] came out at 1.5 µg·h/mL. In data set [7], the clearance was 5.57 L/h/kg.

Broadly, the Tmax is the time from dosing to the highest level. Broadly, the AUC(0-inf) is total exposure, with the tail of the curve extrapolated. A word on the clearance: it is a measure of how efficiently the substance is removed, as volume per time.

The record behind these values is ChEMBL document CHEMBL5335769, “Design, synthesis and biological evaluation of novel diarylacylhydrazones derivatives for the efficient treatment of idiopathic pulmonary fibrosis” (Eur J Med Chem, 2023).
